According to US20230088286A1, “USP7 INHIBITOR FOR USE IN THE TREATMENT OF CANCER” (ALMAC DISCOVERY LIMITED, priority 2020, published 2023):
Read-outs that look alike come from different tables or passages of the source.

Legend:
[1] = test system: HT29, H1299, LNCaP and MCF-7 cells; assay: sVEGF ELISA in cancer cells; assay type: cell-based, human; conditions: MCF-7, HT29, H1299, compared to vehicle-treated cells
Protocol: Levels of sVEGF released to cell culture media was measured by ELISA.
(§1) For the co-culture experiments, 5×10^4 cancer cells were seeded in transwell in 0.5 mL complete growth medium and placed on the top of 0.1×10^6 fibroblasts plated in 12-well in 1 mL low serum growth media overnight. Following day cancer cells were washed with PBS and media replaced with reduced (1%) serum growth media. 0.5×10^6 PBMC were plated on top of fibroblasts, incubated for 45 min and activated with CD3 (1 μg/ml final concentration) and CD28 (5 μg/ml final concentration). […] Monoculture experiments, 0.1×10^6 cells were seeded in 12-well in 1 mL of complete growth media (cancer cells) or low serum growth media (fibroblasts) and incubated overnight. […] Afterwards, cell culture media was collected, cell debris were removed by centrifugation the concentration of VEGF in the cell culture supernatants was measured using the human/mouse VEGF immunoassay Quantikine ELISA kit (R&D systems, Minneapolis, Minn., USA) according to the manufacturer's instructions. For the intracellular VEGF detection, total protein concentration was determined by BCA (Pierce Chemical, USA) and VEGF levels determined using the same kit described above.

[2] = test system: immortalized lung fibroblasts (WI38-VA13); assay: sVEGF ELISA in immortalized fibroblasts; assay type: cell-based, human; conditions: SV-40 immortalized, destabilized p53
Protocol: FIG. 7: USP7 inhibition-mediated decrease in VEGF secretion is dependent on a functional p53 pathway.
as §1

HIF-1α = assay: Ubiquitination assay, TUBE pull-down of polyubiquitinated HIF-1α; assay type: cell-based, human; conditions: HDF, hypoxia
Protocol: Given HIF-1α stability is known to be regulated at the protein level by ubiquitination, we investigated whether USP7 inhibition modulates HIF-1α polyubiquitination. […] Cells were harvested, lysed and polyubiquitinated proteins pulled down using two types of Tetra Ubiquitin Binding Entities (TUBES); with equal affinity for K48/K63 or 10 times more affinity for […]. Samples were analysed by immuno-blot using a HIF-1α antibody. […] These findings indicate that USP7 inhibition results in K48 polyubiquitination of HIF-1α and consequently, its proteasomal-mediated degradation.
Cells were lysed in a buffer containing 50 mM Tris-HCl, pH 7.5, 150 mM NaCl, 1 mM EDTA, 1% NP-40, 10% Glycerol, 50 mM NaF, 5 mM sodium pyrophosphate, 10 mM glycerol phosphate, 1 mM sodium orthovanadate, protease and phosphatase inhibitor tablet and 50 uM PR-619. Lysates were pre-cleared by centrifugation at 4° C. for 15 mins at 16,000× g and protein concentration determined using BCA method. 20 ul of samples was taken as input. Pre-cleared supernatant containing 0.5 mg of total protein was added to 20 ul equilibrated Agarose-TUBE 1 or TUBE 2 beads (Life Sensors) and incubated for 2 hours at 4° C. on a rocker platform. Beads were collected by low speed centrifugation (1000-5000× g, 4° C.) for 5 minutes and supernatant taken as FT. Beads were washed twice with 1 ml TBS-T (20 mM Tris-HCl, pH 8.0, 0.15M NaCl, 0.1% Tween-20) and collected by low speed centrifugation. Finally, beads were resuspended in 30 ul of SDS reducing sample buffer and boiled for 10 min at 95° C.

[3] = test system: cancer cells, primary and immortalized fibroblasts; assay: Cell proliferation assay (CellTiter-Glo viability); assay type: cell-based, human
Protocol: The functional impact of USP7-mediated decrease in VEGF secretion is not on fibroblast or cancer cell proliferation. […] After 72 hours cell viability was measured by Cell-Titer-Glo. The results were normalized to the control non-treated group (mean±SD, n=3).

[4] = test system: cancer cells, fibroblasts and endothelial cells; assay: Scratch wound cell migration assay; assay type: cell-based, human; conditions: any of tested cells
Protocol: Pictures of wound closure were taken every 2 hours during a 4-day assay using a time-lapse microscope. Charts are displaying the percentage of wound closure over time.
96-well ImageLock plates were coated with 0.1 mg/ml growth factor reduced Matrigel® and incubated for 1 h at 37° C. Cells were seeded a density of 10,000-40,000 cells/well in 100 μL/well and incubated overnight. Next day wounds were simultaneously created in all wells using the WoundMaker. After wounding, media was aspirated from each well and cells were washed twice with PBS. For invasion cells were overlayed with 50 μL of the Matrigel® top layer at 3mg/ml and incubated for 30 min at 37° C. […] Cell plates were placed into the IncuCyte live-cell analysis system and each well imaged using 10× objective every 2 hours for the total of 5-days. Images were analysed using IncuCyte scratch wound protocol and results presented as percentage of wound confluence.

tumour VEGFA mRNA = assay: RNA-seq of syngeneic CT-26 tumour samples; assay type: in vivo, mouse
Protocol: Finally, mode of action of AD-04 in vivo was analysed by RNA-seq. […] Moreover, individual genes within HIF1A pathway were differentially modulated upon USP7 inhibition.

USP7 = USP7 (Homo sapiens, UniProt Q93009); assay: USP7 FP; assay type: biochemical
Sequence of USP7 (Q93009 whole entry): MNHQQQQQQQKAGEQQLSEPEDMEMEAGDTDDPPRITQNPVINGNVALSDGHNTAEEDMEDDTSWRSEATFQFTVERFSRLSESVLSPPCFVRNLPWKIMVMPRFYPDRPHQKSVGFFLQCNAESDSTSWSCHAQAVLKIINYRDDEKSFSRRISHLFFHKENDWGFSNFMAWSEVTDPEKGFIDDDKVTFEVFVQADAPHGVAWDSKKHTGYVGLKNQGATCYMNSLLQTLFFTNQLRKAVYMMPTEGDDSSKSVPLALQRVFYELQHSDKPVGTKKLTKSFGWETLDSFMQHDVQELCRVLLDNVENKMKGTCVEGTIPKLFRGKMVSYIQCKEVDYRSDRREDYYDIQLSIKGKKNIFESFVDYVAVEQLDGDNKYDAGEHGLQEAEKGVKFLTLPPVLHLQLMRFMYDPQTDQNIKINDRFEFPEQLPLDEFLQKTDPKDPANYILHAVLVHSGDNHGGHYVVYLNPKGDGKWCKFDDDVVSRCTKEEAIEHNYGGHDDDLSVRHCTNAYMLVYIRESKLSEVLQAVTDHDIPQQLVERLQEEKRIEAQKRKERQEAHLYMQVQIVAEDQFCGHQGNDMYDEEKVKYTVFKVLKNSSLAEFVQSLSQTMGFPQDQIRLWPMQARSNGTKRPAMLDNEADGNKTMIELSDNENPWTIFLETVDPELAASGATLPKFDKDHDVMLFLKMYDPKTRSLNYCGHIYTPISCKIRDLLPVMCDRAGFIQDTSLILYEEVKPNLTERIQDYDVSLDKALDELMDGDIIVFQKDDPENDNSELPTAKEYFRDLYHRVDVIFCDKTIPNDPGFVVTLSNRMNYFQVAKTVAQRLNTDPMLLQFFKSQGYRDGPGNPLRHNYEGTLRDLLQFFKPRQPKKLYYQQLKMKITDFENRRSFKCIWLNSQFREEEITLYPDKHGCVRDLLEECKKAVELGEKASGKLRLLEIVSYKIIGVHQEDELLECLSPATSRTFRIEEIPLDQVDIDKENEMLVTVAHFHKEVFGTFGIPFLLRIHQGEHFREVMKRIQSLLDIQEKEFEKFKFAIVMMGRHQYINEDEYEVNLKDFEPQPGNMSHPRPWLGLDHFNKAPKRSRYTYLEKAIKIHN

hERG = hERG (Homo sapiens, UniProt Q12809); assay: hERG
Sequence of hERG (Q12809 whole entry): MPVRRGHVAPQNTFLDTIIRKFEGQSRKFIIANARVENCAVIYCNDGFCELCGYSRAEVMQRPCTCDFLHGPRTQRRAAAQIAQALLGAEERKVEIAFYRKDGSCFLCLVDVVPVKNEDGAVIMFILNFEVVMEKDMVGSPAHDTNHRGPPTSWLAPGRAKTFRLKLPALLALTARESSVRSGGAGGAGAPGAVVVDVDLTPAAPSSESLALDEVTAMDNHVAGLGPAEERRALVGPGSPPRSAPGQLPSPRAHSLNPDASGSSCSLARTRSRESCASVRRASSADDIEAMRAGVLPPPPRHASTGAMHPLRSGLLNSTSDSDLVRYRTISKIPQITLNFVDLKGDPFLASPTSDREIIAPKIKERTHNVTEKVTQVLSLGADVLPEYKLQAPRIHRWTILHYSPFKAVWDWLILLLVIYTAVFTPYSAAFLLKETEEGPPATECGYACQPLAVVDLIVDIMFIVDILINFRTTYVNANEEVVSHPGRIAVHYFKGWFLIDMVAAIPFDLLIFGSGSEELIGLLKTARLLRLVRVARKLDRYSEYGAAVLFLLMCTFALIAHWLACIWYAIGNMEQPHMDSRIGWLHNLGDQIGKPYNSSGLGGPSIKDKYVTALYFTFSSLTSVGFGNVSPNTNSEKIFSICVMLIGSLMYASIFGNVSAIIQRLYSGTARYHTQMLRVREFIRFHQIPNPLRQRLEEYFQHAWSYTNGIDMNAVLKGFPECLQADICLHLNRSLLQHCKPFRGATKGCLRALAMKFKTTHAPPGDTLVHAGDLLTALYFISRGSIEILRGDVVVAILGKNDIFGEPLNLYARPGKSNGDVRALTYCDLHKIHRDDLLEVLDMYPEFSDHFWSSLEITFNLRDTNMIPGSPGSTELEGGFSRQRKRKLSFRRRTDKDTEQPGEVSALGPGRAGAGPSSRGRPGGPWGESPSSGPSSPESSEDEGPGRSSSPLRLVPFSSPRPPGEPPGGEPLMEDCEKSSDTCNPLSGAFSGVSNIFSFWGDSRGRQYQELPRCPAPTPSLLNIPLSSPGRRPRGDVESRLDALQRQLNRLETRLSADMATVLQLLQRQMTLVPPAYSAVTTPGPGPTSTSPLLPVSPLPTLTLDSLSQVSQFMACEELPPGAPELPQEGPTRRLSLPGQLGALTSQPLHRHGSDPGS

2C19 = 2C19 (Homo sapiens, UniProt P33261); assay: Cyp inhibition 2C19; assay type: in vitro ADME; conditions: read-out: Cyps: 2C19
Sequence of 2C19 (P33261 whole entry): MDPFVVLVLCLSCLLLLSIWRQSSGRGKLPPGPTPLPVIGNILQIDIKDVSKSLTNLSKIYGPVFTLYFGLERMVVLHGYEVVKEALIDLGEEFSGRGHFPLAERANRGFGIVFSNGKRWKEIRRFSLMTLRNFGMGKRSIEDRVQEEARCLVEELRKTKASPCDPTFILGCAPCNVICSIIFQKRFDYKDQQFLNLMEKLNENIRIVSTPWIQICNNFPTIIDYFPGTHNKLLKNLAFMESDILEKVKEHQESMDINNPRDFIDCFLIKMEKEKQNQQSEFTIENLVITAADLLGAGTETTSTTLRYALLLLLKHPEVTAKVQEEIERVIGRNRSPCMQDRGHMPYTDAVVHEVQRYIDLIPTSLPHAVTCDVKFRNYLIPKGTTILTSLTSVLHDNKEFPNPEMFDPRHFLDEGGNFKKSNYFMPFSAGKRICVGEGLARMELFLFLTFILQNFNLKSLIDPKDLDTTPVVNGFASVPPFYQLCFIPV

3A4 = 3A4 (Homo sapiens, UniProt P08684); assay: Cyp inhibition 3A4; assay type: in vitro ADME; conditions: read-out: Cyps: 3A4
Sequence of 3A4 (P08684 whole entry): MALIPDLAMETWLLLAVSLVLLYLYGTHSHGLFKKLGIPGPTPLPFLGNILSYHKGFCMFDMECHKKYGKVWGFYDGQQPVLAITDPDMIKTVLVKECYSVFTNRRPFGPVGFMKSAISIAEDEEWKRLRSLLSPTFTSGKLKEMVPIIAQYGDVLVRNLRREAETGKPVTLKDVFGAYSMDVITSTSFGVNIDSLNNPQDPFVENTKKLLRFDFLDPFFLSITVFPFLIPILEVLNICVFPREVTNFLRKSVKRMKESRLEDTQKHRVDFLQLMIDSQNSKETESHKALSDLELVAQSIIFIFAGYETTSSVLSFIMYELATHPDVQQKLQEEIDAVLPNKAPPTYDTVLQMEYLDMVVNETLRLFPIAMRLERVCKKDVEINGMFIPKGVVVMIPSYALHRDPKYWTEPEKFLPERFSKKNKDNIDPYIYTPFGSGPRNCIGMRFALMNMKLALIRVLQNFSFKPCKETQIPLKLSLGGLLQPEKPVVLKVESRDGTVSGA

SMILES: C[C@H](CC(=O)N1CCC(O)(Cn2cnc3c(-c4ccc(CN)cc4)n(C)nc3c2=O)CC1)c1ccccc1 [AD-04, (R)-3-(4-(Aminomethyl)phenyl)-6-((4-hydroxy-1-(3-phenylbutanoyl)piperidin-4-yl)methyl)-2-methyl-2H-pyrazolo[4,3-d]pyrimidin-7(6H)-one]
- sVEGF levels in supernatants of cancer cell lines [1]: not significantly affected
- VEGF secretion [2]: insensitive
- K63 specific polyubiquitination of HIF-1α (HIF-1α; versus DMSO control): no difference
- K63/K48 polyubiquitinated HIF-1α (HIF-1α; AD-04 1 μM, MG132 10 μM, 1 hour): enhanced the accumulation
- sensitivity of cancer cell lines ([3]; HT29 and H1299 (data not shown)): insensitive
- sensitivity of cancer cell lines ([3]; LNCaP and MCF-7 (data not shown)): sensitive
- cell viability ([3]; high concentration, normoxia and hypoxia, 72 hours): do not affect cell viability
- migration (scratch wound healing) [4]: did not modulate migration
- tumour VEGFA long isoform mRNA (tumour VEGFA mRNA): increase
- tumour VEGFA short isoform mRNA (tumour VEGFA mRNA): decrease

SMILES: CC1(C(=O)N2CCC(O)(Cn3cnc4c(cc(Cl)n4-c4ccc5c(c4)CCO5)c3=O)CC2)CC1 [ADC-159, 6-Chloro-7-(2,3-dihydrobenzofuran-5-yl)-3-((4-hydroxy-1-(1-methylcyclopropane-1-carbonyl)piperidin-4-yl)methyl)-3,7-dihydro-4H-pyrrolo[2,3-d]pyrimidin-4-One]
- IC50 (USP7; asterisk not explained, read-out: USP7 FP IC50 (value in brackets marked *)): 0.159 µM
- IC50 (USP7; read-out: USP7 FP IC50): 0.386 µM
- IC50 (hERG): 15.6 µM
- IC50 (2C19): > 20 µM
- IC50 (3A4): > 20 µM
